# From patent publication US5929076A, “Cycloalkyl substituted imidazoles” (SmithKline Beecham Corporation, priority 1998, dated 1999)
# Tested on: human PGHS-2 protein expression in LPS stimulated human monocytes
# Test: Prostoglandin endoperoxide synthase-2 (PGHS-2) assay
# Format: cell-based
# Details: rank order potency similar to that for inhibiting cytokine production
# Protocol: The following assay describes a method for determining the inhibitory effects of compounds of Formula (I) on human PGHS-2 protein expression in LPS stimulated human monocytes. Method: Human peripheral blood monocytes were isolated from buffy coats by centrifugation through Ficoll and Percoll gradients. Cells were seeded at 2×10^6 /well in 24 well plates and allowed to adhere for 1 hour in RPMI supplemented with 1% human AB serum, 20 mM L-glutamine, Penicillin-Streptomycin and 10 mM HEPES. Compounds were added at various concentrations and incubated at 37° C. for 10 minutes. LPS was added at 50 ng/well (to induce enzyme expression) and incubated overnight at 37° C. The supernatant was removed and cells washed once in cold PBS. The cells were lysed in 100 μl of cold lysis buffer(50 mM Tris/HCl pH 7.5, 150 mM NaCl, 1% NP40, 0.5% sodium deoxycholate, 0.1% SDS, 300 ug/ml DNAse, 0.1% TRITON X-100, 1 mM PMSF, 1 mM leupeptin, 1 mM pepstatin). The lysate was centrifuged (10,000×g for 10 min. at 4° C.) to remove debris and the soluble fraction was subjected to SDS PAGE. analysis (12% gel). Protein separated on the gel were transferred onto nitrocellulose membrane by electrophoretic means for 2 hours at 60 volts. The membrane was pretreated for one hour in PBS/0.1% Tween 20 with 5% non-fat dry milk. […]
row,SMILES,inhibition of LPS induced PGHS-2 protein expression
1,"Fc1ccc(-c2nc3n(c2-c2ccncc2)CCS3)cc1 [6-(4-Fluorophenyl)-2,3-dihydro-5-(4-pyridinyl)imidazo[2,1-b]thiazole]",active
2,C[C@@H]1C[C@H]2[C@@H]3CCC4=CC(=O)C=C[C@]4(C)[C@@]3(F)[C@@H](O)C[C@]2(C)[C@@]1(O)C(=O)CO [Dexamethasone],active
